Usually EC50 stands for the concentration at which the effect is half-maximal.

27 compounds from patent US20240327393A1 (SIRONAX LTD., priority 2021, published 2024) can be followed below.

One assay relates to HT-1080 (ATCC, CCL-121) cells. Briefly: HT-1080 cell viability assay with ferroptosis inducer RSL3 (Cell Titer-Glo). It counts as cell-based. Particulars: HT-1080 cells treated with RSL3; 3-fold, 10-point dilution, 1.1 μM highest concentration; Table 2; read-out: EC50 (nM), ferroptosis inhibitory activity. In outline:
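HT-1080 cells (6000 per well) were cultured overnight at 37 °C, then co-treated with RSL3 and compound in a 3-fold, 10-point series topping at 1.1 μM. Viability was read by CellTiter-Glo luminescence and normalized to untreated controls. EC50 came from a sigmoidal non-linear regression fit.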
In general terms: Cellular ATP, detected with luciferase, serves as a proxy for viable cell number.
For the compound `Cc1cc(Nc2ccc3c(c2)OCC(=O)N3)ccc1N1CC(C)OC(C)C1` (stereo not drawn) [Compound 145, 7-((4-(2,6-dimethylmorpholino)-3-methylphenyl)amino)-2H-benzo[b][1,4]oxazin-3(4H)-one], the EC50 was 0.1 to 100 nM.

Still in this assay, the particulars now being: Homo sapiens; HT-1080 cells treated with RSL3; 3-fold, 10-point dilution, 1.1 μM highest concentration; Table 2; read-out: EC50 (nM), ferroptosis inhibitory activity.
As for `Cn1c(=O)n(C)c2cc(Nc3ccc(N4CCC(C(F)(F)F)CC4)cc3C#N)ccc21` [Compound 374, 2-((1,3-dimethyl-2-oxo-2,3-dihydro-1H-benzo[d]imidazol-5-yl)amino)-5-(4-(trifluoromethyl)piperidin-1-yl)benzonitrile], the EC50 was in the range of 0.1 to 100 nM.

Regarding `Cc1cc(N2CC(C)OC(C)C2)ccc1Nc1ccc2c(c1)OCC(=O)N2` (stereo not drawn) [Compound 96], the EC50 was 0.1 to 100 nM.

Consider `O=C1COc2cc(Nc3ccc(N4CCC(C(F)(F)F)CC4)cc3)ccc2N1` [Compound 85, 7-((4-(4-(trifluoromethyl)piperidin-1-yl)phenyl)amino)-2H-benzo[b][1,4]oxazin-3(4H)-one], for which the EC50 fell in the range of 0.1 to 100 nM.

Take `CC1CCN(c2ccc(Nc3ccc4c(c3)ncc(=O)n4C)cc2)CC1` [Compound 115, 1-methyl-6-((4-(4-methylpiperidin-1-yl)phenyl)amino)quinoxalin-2(1H)-one]: the EC50 was 0.1 to 100 nM.

Regarding `COCCn1c(=O)n(C)c2cc(Nc3ccc(N4CCC(C(F)(F)F)CC4)cc3)ccc21` [Compound 354, 1-(2-methoxyethyl)-3-methyl-5-((4-(4-(trifluoromethyl)piperidin-1-yl)phenyl)amino)-1,3-dihydro-2H-benzo[d]imidazol-2-one], the EC50 lay in the range of 0.1 to 100 nM.

On to `Cn1cc(C(N)=O)c2ccc(Nc3ccc(N4CCC(C(F)(F)F)CC4)cc3)cc21` [Compound 403, 1-methyl-6-((4-(4-(trifluoromethyl)piperidin-1-yl)phenyl)amino)-1H-indole-3-carboxamide], for which the EC50 was 0.1 to 100 nM.

Regarding `Cc1cc(N2CC(C)OC(C)C2)ccc1Nc1ccc2[nH]ncc2c1` (stereo not drawn) [Compound 443, N-(4-(2,6-dimethylmorpholino)-2-methylphenyl)-1H-indazol-5-amine], the EC50 lay within 0.1 to 100 nM.

Regarding `CCN1Cc2ccc(Nc3ccc(N4CCC(F)(F)CC4)cc3)cc2C1` [Compound 167, N-(4-(4,4-difluoropiperidin-1-yl)phenyl)-2-ethylisoindolin-5-amine], the EC50 lay in the range of 0.1 to 100 nM.

`CN1Cc2cc(Nc3ccc(N4CCC(C(F)(F)F)CC4)cc3)ccc2N(C)C1=O` [Compound 112, 1,3-dimethyl-6-((4-(4-(trifluoromethyl)piperidin-1-yl)phenyl)amino)-3,4-dihydroquinazolin-2(1H)-one]: the EC50 was 0.1 to 100 nM.

Turning to `CN1Cc2cc(Nc3ccc(N4CCC(C(F)(F)F)CC4)cc3)cc(F)c2C1=O` [Compound 202, 7-fluoro-2-methyl-5-((4-(4-(trifluoromethyl)piperidin-1-yl)phenyl)amino) isoindolin-1-one], the EC50 was 0.1 to 100 nM.

On to `CC1CN(c2ccc(Nc3ccc4c(c3)CN(C)C4)cc2)CC(C)O1` (stereo not drawn) [Compound 430, N-(4-(2,6-dimethylmorpholino)phenyl)-2-methylisoindolin-5-amine], for which the EC50 was 0.1 to 100 nM.

As for `CCN(CCC(=O)OC)c1ccc(Nc2ccc3c(c2)n(C)c(=O)n3C)cc1` [Compound 361, methyl 3-((4-((1,3-dimethyl-2-oxo-2,3-dihydro-1H-benzo[d]imidazol-5-yl)amino)phenyl)(ethyl)amino)propanoate], the EC50 is 100 to 1000 nM.

For the compound `Cn1c(=O)c(=O)n(C)c2cc(Nc3ccc(N4CCC(C(F)(F)F)CC4)cc3)ccc21` [Compound 110, 1,4-dimethyl-6-((4-(4-(trifluoromethyl)piperidin-1-yl)phenyl)amino)-1,4-dihydroquinoxaline-2,3-dione], the EC50 fell in the range of 0.1 to 100 nM.

Consider `Cn1c(=O)n(C)c2cc(Nc3ccc4c(c3)OCCO4)ccc21` [Compound 307, 5-((2,3-dihydrobenzo[b][1,4]dioxin-6-yl)amino)-1,3-dimethyl-1,3-dihydro-2H-benzo[d]imidazol-2-one], for which the EC50 was in the range of 100 to 1000 nM.

`Cn1c(=O)n(C)c2cc(Nc3ccc(C4CCC(C)(C)CC4)cc3)ccc21` [Compound 407, 5-((4-(4,4-dimethylcyclohexyl)phenyl)amino)-1,3-dimethyl-1,3-dihydro-2H-benzo[d]imidazol-2-one]: the EC50 fell in the range of 0.1 to 100 nM.

`CC(C)(C)c1ccc(Nc2ccc3c(CCN)cc(=O)oc3c2)cc1` [Compound 121, 4-(2-aminoethyl)-7-((4-(tert-butyl)phenyl)amino)-2H-chromen-2-one]: the concentration giving a half-maximal response (EC50) was in the range of 0.1 to 100 nM.

For the compound `CN1C(=O)COc2cc(Nc3ccc(F)c(N4CCC(C(F)(F)F)CC4)c3)ccc21` [Compound 33, 7-((4-fluoro-3-(4-(trifluoromethyl)piperidin-1-yl)phenyl)amino)-4-methyl-2H-benzo[b][1,4]oxazin-3(4H)-one], the EC50 was in the range of 0.1 to 100 nM.

The assay is the same for the next values; noted with them: Homo sapiens; HT-1080 cells treated with RSL3; 3-fold, 10-point dilution, 1.1 μM highest concentration; Table 3; read-out: EC50 (nM), ferroptosis inhibitory activity.
As to `Cc1cc(N2CCC(C(F)(F)F)CC2)ccc1Nc1ccc2c(c1)OCCC(=O)N2C` [Compound 594, 5-methyl-8-((2-methyl-4-(4-(trifluoromethyl)piperidin-1-yl)phenyl)amino)-2,3-dihydrobenzo[b][1,4]oxazepin-4(5H)-one], the EC50 lay in the range of 0.1 to 100 nM.

Consider `O=C1COc2cc(Nc3cnc(N4CCC(C(F)(F)F)CC4)c(F)c3)ccc2N1` [Compound 459, 7-((5-fluoro-6-(4-(trifluoromethyl)piperidin-1-yl)pyridin-3-yl)amino)-2H-benzo[b][1,4]oxazin-3(4H)-one], for which the EC50 fell in the range of 0.1 to 100 nM.

Consider `Cc1nc(N2C[C@@H](C)O[C@@H](C)C2)ccc1Nc1ccc2c(c1)ncn2C` [Compound 605, N-(6-((2S,6R)-2,6-dimethylmorpholino)-2-methylpyridin-3-yl)-1-methyl-1H-benzo[d] imidazol-5-amine], for which the EC50 lay within 0.1 to 100 nM.

Turning to `Cc1cc(N2CCC(C(F)(F)F)CC2)ccc1Nc1ccc2c(c1)OC(CO)C(=O)N2` (stereo not drawn) [Compound 602, 2-(hydroxymethyl)-7-((2-methyl-4-(4-(trifluoromethyl)piperidin-1-yl)phenyl)amino)-2H-benzo[b][1,4]oxazin-3(4H)-one], the EC50 was 0.1 to 100 nM.

Regarding `O=C1COc2cc(Nc3ccc(N4CCC(F)CC4)cc3)ccc2N1` [Compound 508, 7-((4-(4-fluoropiperidin-1-yl)phenyl)amino)-2H-benzo[b][1,4]oxazin-3(4H)-one], the EC50 fell in the range of 0.1 to 100 nM.

In the case of `Cc1cc(N2CCC(C(F)(F)F)CC2)ncc1Nc1ccc2c(c1)OCC(=O)N2C` [Compound 452, 4-methyl-7-((4-methyl-6-(4-(trifluoromethyl)piperidin-1-yl)pyridin-3-yl)amino)-2H-benzo[b][1,4]oxazin-3(4H)-one], the EC50 fell in the range of 0.1 to 100 nM.

As to `Cc1c(Nc2ccc3c(c2)OCC(=O)N3)ccc(N2CCC(C(F)(F)F)CC2)c1C` [Compound 487, 7-((2,3-dimethyl-4-(4-(trifluoromethyl)piperidin-1-yl)phenyl)amino)-2H-benzo[b][1,4]oxazin-3(4H)-one], the EC50 was 0.1 to 100 nM.

`Cc1cc(N2CCC(O)(C(F)(F)F)C2)ccc1Nc1ccc2c(c1)OCC(=O)N2` (stereo not drawn) [Compound 617, 7-((4-(3-hydroxy-3-(trifluoromethyl)pyrrolidin-1-yl)-2-methylphenyl)amino)-2H-benzo[b][1,4]oxazin-3(4H)-one]: the EC50 was 0.1 to 100 nM.

Consider `Cc1cc(N2C[C@@H](C)O[C@@H](C)C2)ccc1Nc1ccc2[nH]cnc2c1` [Compound 493, N-(4-((2R,6S)-2,6-dimethylmorpholino)-2-methylphenyl)-1H-benzo[d] imidazol-5-amine], for which the EC50 fell in the range of 0.1 to 100 nM.
